# Reference: patent US6835819B2, “Sequences and their use” (Metcon Medicin AB, priority 2000, dated 2004)
# Key:
# Type in all cases: cell-based, mouse
# [1] = system: IRS-2 mRNA; assay: IRS-2 mRNA expression (Northern blots) in differentiated 3T3-L1 adipocytes; settings: for effect on IRS-2 gene expression: FIG. 2: 10 μM darglitazone with 100 nM insulin, 10 μM WY14643 with or without insulin, 100 nM progesterone, 200 μM 8-BrcAMP
# Experimental: (§1) 3T3-L1 fibroblasts were grown and differentiated into adipocytes according to Rubin et al., 1977). At least 90% of the cells had acquired the adipocyte phenotype 6 days after initiating differentiation. Eight days after differentiation, the medium was changed and the various agents added for the times indicated in the Results.
# (§2) Total cellular RNA was isolated from cells with guanidinium thiocyanate, as described (Chirgwin et al. 1979). Northern blot analyses were performed on total cellular RNA (30 μg) with labeled cDNA probes made against β-actin as housekeeping gene, mouse IRS-1 (bp 1333-2335) and mouse IRS-2 (bp 2987-3325) (kindly provided by Drs. J. Pierce and L-M Wang, NCI, NIH), rodent GLUT4 (bp 121-2128, Accession Nr NM 001042, kindly provided by Dr. Sam W. Cushman, NIDDK, NIH) and PKB/Akt using a PCR fragment against PKBβ (bp 282-1130, Accession Nr M95936) in a common sequence for PKBα, PKBβ and PKBγ. 5′ sequence […] and 3′ sequence […] were used as PCR primers (SEQ. ID. NO. 13 and 14, respectively).
# [2] = system: IRS-1 mRNA; assay: IRS-1 mRNA expression (Northern blots) in differentiated 3T3-L1 adipocytes; settings: 48 hrs; insulin alone or combined with PPARγ ligand; same experiments as IRS-2
# Experimental: as §1, §2
# [3] = system: PKB/Akt mRNA; assay: PKB/Akt mRNA expression (Northern blots) in differentiated 3T3-L1 adipocytes; settings: 48 hrs; insulin alone or combined with PPARγ ligand; same experiments as IRS-2
# Experimental: as §1, §2
# [4] = system: IRS-2 protein; assay: IRS-2 protein expression (immunoblot) in differentiated 3T3-L1 cells
# Experimental: (§3) 3T3-L1 fibroblasts were grown and differentiated into adipocytes according to Rubin et al., 1977). At least 90% of the cells had acquired the adipocyte phenotype 6 days after initiating differentiation. Eight days after differentiation, the medium was changed and the various agents added for the times indicated in the Results. Cell lysates were prepared as described by Rondinone et al. 1997. Equal amounts of protein were separated by SDS/PAGE, transferred and immunoblotted with appropriate antibodies against the specific proteins. Phosphotyrosines were immunoblotted with antibody PY99 (Transduction Laboratories, Lexington, N.Y.), GLUT4 with an antibody kindly provided by Dr. Sam W. Cushman (NIDDK, NIH), IRS-1 and IRS-2 with antibodies from Upstate Biotechnology, Inc. (Lake Placid, N.Y.) and PKB/Akt with antibodies from Biolab (Boston, Mass.). Immunoprecipitations were performed as described (Rondinone et at., 1997) and individual proteins were detected by blotting with horseradish peroxidase-linked secondary antibodies and using enhanced chemiluminescence (Nycomed Amersham plc., UK).
# [5] = system: IRS-1 protein; assay: IRS-1 protein expression (immunoblot) in differentiated 3T3-L1 cells
# Experimental: as §3
# [6] = system: PKB/Akt protein; assay: PKB/Akt protein expression in differentiated 3T3-L1 cells; settings: pioglitazone and/or insulin for 48 hrs
# Experimental: as §3
# [7] = system: PKB/Akt phosphorylation; assay: Acute insulin-stimulated PKB/Akt phosphorylation (immunoblot) in pre-cultured 3T3-L1 adipocytes; settings: cells cultured with agent alone for 48 hrs, serum-starved 3 hrs, then 100 nM insulin 10 min
# Experimental: Lysates were prepared from cells that had been cultured for 48 hrs as in FIG. 3A, serum-starved for 3 hrs, and then stimulated with 100 nM insulin for 10 min. Following separation on 7.5% SDS-PAGE, the proteins were immunoblotted with antibodies recognizing insulin-stimulated phosphoserine (PS-PKB) and phosphothreonine (PThr-PKB) PKB/Akt.
# To study the acute effect of insulin, the cells were serum-deprived for 3 hrs before adding 100 nM insulin for 15 min.
# The present inventor also examined the acute effect of insulin on down-stream activation of PKB/Akt in cells that had been cultured with pioglitazone for 48 hrs, washed and serum-starved for 3 hrs in fresh medium. […] Insulin (100 nM) was then added for 10 min to the serum-starved cells.
compound,measurement,setting,value
Nc1ncnc2c1nc(Br)n2[C@@H]1O[C@@H]2COP(=O)(O)O[C@H]2[C@H]1O [8-BrcAMP],effect on IRS-2 gene expression,[1]; 48 hrs,no effects were seen
Cc1cccc(Nc2cc(Cl)nc(SCC(=O)O)n2)c1C [WY14643],average increase of IRS-2 mRNA expression,"[1]; 10 μM, n=2, also when insulin was added (FIG. 2 middle)",9%
same,effect on IRS-2 gene expression,[1]; 48 hrs,completely without effect
same,gene expression of IRS-1,[2],no effect was seen
same,gene expression of PKB/Akt,[3],no effect was seen
Cc1oc(-c2ccccc2)nc1CCC(=O)c1ccc(CC2SC(=O)NC2=O)cc1 (stereo not drawn) [darglitazone],gene expression of IRS-1,[2],"Neither insulin alone nor when combined with the PPARγ ligands, pioglitazone or darglitazone (not shown), altered"
same,gene expression of PKB/Akt,[3],"Neither insulin alone nor when combined with the PPARγ ligands, pioglitazone or darglitazone (not shown), altered"
CCc1ccc(CCOc2ccc(CC3SC(=O)NC3=O)cc2)nc1 (stereo not drawn) [pioglitazone],average increase of IRS-2 mRNA expression,"[1]; 1 μM, n=2",230%
same,increase of IRS-2 mRNA,"[1]; 10 μM pioglitazone in combination with 100 nM insulin, 48 hrs (FIG. 1A top)",~4 fold
same,average increase of IRS-2 mRNA expression,"[1]; 10 μM, same experiments as 1 μM, n=2",292%
same,increase of IRS-2 mRNA levels relative to β-actin mRNA,"[1]; after 48 hrs, 5 experiments (FIG. 1B top)",3-5 fold
same,average increase of IRS-2 protein expression,[4]; after 48 hrs,36%
same,change of IRS-1 protein expression,"[5]; insulin and pioglitazone combined, three experiments, range 18-39%",−31%
same,change of IRS-1 protein expression,"[5]; pioglitazone alone, three experiments",+7%
CC(=O)[C@H]1CC[C@H]2[C@@H]3CCC4=CC(=O)CC[C@]4(C)[C@H]3CC[C@]12C [progesterone],effect on IRS-2 gene expression,[1]; 48 hrs,no effects were seen
insulin,further increase of IRS-2 mRNA by addition of insulin to pioglitazone,"[1]; 100 nM insulin added to 10 μM pioglitazone, 48 hrs (FIG. 1A bottom)",no further increase
same,IRS-2 gene expression,"[1]; insulin alone (100 nM), 48 hrs",did not change
same,IRS-2 protein expression,"[4]; 48 hrs, 10 μM pioglitazone or 100 nM insulin (FIG. 1B bottom)",not changed
same,gene expression of IRS-1,[2],"Neither insulin alone nor when combined with the PPARγ ligands, pioglitazone or darglitazone (not shown), altered"
same,gene expression of PKB/Akt,[3],"Neither insulin alone nor when combined with the PPARγ ligands, pioglitazone or darglitazone (not shown), altered"
same,decrease of IRS-1 protein expression,"[5]; insulin alone, three experiments, range 25-39%",33%
same,IRS-1 protein expression,"[5]; pioglitazone alone or insulin alone, chronic (FIG. 3B bottom)",reduced
same,PKB/Akt protein expression,[6],not changed
same,acute effect of insulin on PKB/Akt phosphorylation,[7],markedly reduced
